Here are results for 1 compound from US20060116397A1, “Use of saquinavir as a radiation sensitizer” (The Trustees of the University of Pennsylvania, priority 2004, published 2006).

One data set deals with cells in tissue culture. As to the kind of experiment: Toxicity to cells in tissue culture. The format is cell-based.
The subject of a further data set is T24 cells. Nature of the data set: Clonogenic assay, radiation sensitization (surviving fraction after 2 Gy). The format is cell-based. How it is done: Cultures of cells in log growth phase were counted and plated in 60-mm dishes containing 4 ml of media. The cells were allowed to attach and saquinavir was added to cultures at least one hour prior to irradiation. Cells were irradiated with a Mark I cesium irradiator (J. L. Shepherd, San Fernando, Calif.) at a dose rate of 1.6 Gy/min. Colonies were stained and counted 10-14 days after irradiation. A light box was used to assist in counting colonies. The surviving fraction was calculated by dividing the number of colonies formed by the number of cells plated times plating efficiency (Table 1). Each point value represents the mean surviving fraction from at least six replicate dishes.

Data set [1] concerns Akt. Nature of the data set: Western blot of Akt phosphorylation in white blood cells of HIV patients. The class given is in vivo, human. The note with it: HIV patients taking saquinavir vs HIV patients not using saquinavir. The text has this: As a proof of principle, it was examined whether there was down-regulation of Akt in HIV patients who are being actively treated with HPIs. Blood samples were obtained from HIV patients on courses of various combinations of drugs. WBCs were isolated and stained for Akt using a Western Blot.
On the technique in general: A western blot detects proteins with antibodies after separation by electrophoresis.

For data set [2], the system named is Akt. As to the kind of experiment: Western blot analysis of Akt phosphorylation in SQ2OB head-and-neck cancer cell line. The class given is cell-based, human. The note with it: SQ2OB cells, 25 μM saquinavir, within 20 minutes, Western blot (FIG. 3). The text has this:
Using Western blot analysis, a human head-and-neck cancer cell line, SQ2OB, containing a constitutively-active EGFR receptor and thus, increased signaling through PI3K, was examined for Akt phosphorylation.

Each structure is given as a SMILES string. “Also recorded” adds a separate entry of the source.

As to `CC(C)(C)NC(=O)[C@@H]1C[C@@H]2CCCC[C@@H]2CN1C[C@@H](O)[C@H](Cc1ccccc1)NC(=O)[C@H](CC(N)=O)NC(=O)c1ccc2ccccc2n1` [saquinavir], in the data set on cells in tissue culture, the “toxicity to cells in tissue culture” value is “toxic to cells in tissue culture”. Besides, the “difference in cell kill (enhanced kill) vs radiation alone” value in the data set on T24 cells (T24, 30 fractions of 2 Gy) was ~5 log. The “surviving fraction after 2 Gy (SF2)” value in the data set with T24 cells (T24 cells, 10 μM saquinavir + 2 Gy radiation, control 56%) amounted to 36%. The “saquinavir SF2” value with T24 cells (T24 cells, saquinavir added at least one hour prior to irradiation, colonies counted 10-14 days after, mean of at least six dishes, control 0.560 +/− 0.061) is given as 0.380 +/− 0.168. In the data set with Akt [1], the “Akt phosphorylation in white blood cells” value is listed as “decreased Akt phosphorylation; also recorded: lower levels of Akt phosphorylation”. In the data set on Akt [2], the “Akt phosphorylation at Ser 473 and at Thr 308” value is “down-regulation of Akt phosphorylation at Ser 473 and at Thr 308”.
